Assays:
Experiment in all cases: Viability assay (MTT, Alamar Blue, hexosaminidase), 72 h
Type in all cases: cell-based
[1] = molecular target: MM.1S, B Lymphoblast (multiple myeloma); conditions: MM.1S cells, read-out: EC50
How it was run: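 MM.1S cells (RPMI-1640, 10% FBS, 2 mM glutamine, 37 °C) were seeded at 10000 cells/well and dosed after 24 h, starting at 100 μM with 1:1 serial dilutions, in triplicate, for 72 h. Viability was read sequentially by MTT (570 nm), Alamar Blue (535/590) and hexosaminidase (pH 5.0). Values were normalized to control (100%), and EC50 came from a variable-slope sigmoidal fit.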

[2] = molecular target: RAMOS, B lymphocyte (Burkitt's Lymphoma); conditions: Ramos cells, read-out: EC50
How it was run: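 Ramos cells seeded at 10000 cells/well in DMEM + 10% FBS; after 24 h, compounds added as 1:1 serial dilutions from 100 μM and incubated 72 h at 37 °C. Viability read sequentially by MTT (A570), Alamar Blue (535/590) and hexosaminidase activity, normalized to untreated cells; EC50 from variable-slope sigmoidal fit.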

[3] = molecular target: MCF-7, epithelial (breast cancer); conditions: MCF7 cells, read-out: EC50
How it was run: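 Cells seeded at 5000/well, compounds added 24 h later from 100 μM in 1:1 serial dilutions, triplicate, 72 h at 37° C. Viability read consecutively by MTT (A570), Alamar Blue fluorescence and hexosaminidase activity, normalized to untreated control = 100%; EC50 from variable-slope sigmoidal fit.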

[4] = tested on: JB healthy cells (BJ, fibroblast, normal skin)
Experimental: BJ, fibroblast (normal skin), ATCC® CRL-2522™
Cell lines A549, MCF-7 and RAMOS were cultured in incubator under CO2 (6%) at 37° C. in DMEM high glucose (Dulbecco's Modified Eagle Solution, Gibco-BRL 31966-21) medium with 10% fetal bovine serum inactivated (FBS) (Gibco-BRL 10106-169). Cell lines HL-60 and MM.1S were cultured in incubator at 37° C. in RPMI-1640 (Sigma R8758) medium with 10% of fetal bovine serum inactivated (FBS) and 2 mM glutamine (Sigma G7513). Cell lines BJ were cultured in incubator under CO2 (6%) at 37° C. in Eagle's Minimum Essential Medium (Sigma, M-2279) with 10% fetal bovine serum inactivated (FBS) (Gibco-BRL 10106-169).
During the amplification step and the assays adherent cells were rinsed with DPBS (Dulbecco's Phosphate Buffered Saline, Sigma D1283) three times and afterward treated for 5 minutes with trypsin ([…]) (Gibco-BRL, 15400054) in solution of DPBS at 37° C., and, once detached, transferred in the culturing medium. […] Cells were counted in a Neubauer chamber after labelling with Tripan-Blue. […]
Cells were incubated during 72 h in incubator under CO2 atmosphere at 37° C. Cell viability was measured by means of MTT (3-(4,5-dimethylthiazol-2-yl)-2.5-diphenyltetrazolium bromide) assay, Alamar Blue® (Biosource DAL1100) and Hexosaminidase activity test, consecutively, following manufacturer instructions. […]

Substance: RQRRNXLKRAFAXLRDQ-OH [IDP-S03]
- EC50 [1]: ~14 µM
- EC50 [2]: ~13 µM
- EC50 [3]: 32 ± 5 µM
- EC50 [4]: > 100 µM

Reference: patent publication US11207379B2, “Peptides with anti-cancer activity” (IDP DISCOVERY PHARMA, S.L., priority 2016, dated 2021)
